What was measured:
[1] = system: cucumber powdery mildew pathogen (Sphaerotheca fuliginea); test: Cucumber powdery mildew control test; type: in vivo; design: scale not given here; details: sprayed onto cucumber seedlings
Excerpt: (Test Example) Cucumber Powdery Mildew Control Test 1) Preparation of Drug Solution for Test […] The other components (II) were each formulated into an aqueous solution or suspension having a predetermined concentration. 2) Test A mixed solution of a component (I) and a component (II) at a predetermined concentration was sprayed onto cucumber seedlings (variety: “Shimo-shirazu, creeping type”, cotyledon stage). After natural drying at room temperature, conidiospores of a cucumber powdery mildew pathogen (Sphaerotheca fuliginea) were inoculated by blushing off, and the seedlings were kept in a thermostatic room at 20° C. using a 12 hour light/dark cycle for 7 to 10 days. The states of lesion development on leaves were examined by comparing with that for the untreated case, and the control values were determined. The test was duplicately carried out. The results are shown in Tables 8 to 12 together with expected values calculated as follows. Expected values were calculated by using Colby's equation: […] Here, E denotes an expected value of a control value, M denotes a control value in using a component (I) alone, and N denotes a control value in using a component (II) alone. If the actually measured control value of a composition of a component (I) and a component (II) is higher than the expected value, E, the composition of a component (I) and a component (II) is said to have exerted synergistic effect.

[2] = system: gray mold pathogen (Botrytis cinerea); test: Gray mold antimicrobial test (growth inhibition rate); type: cell-based
Experimental: (Test Example) Gray Mold Antimicrobial Test (Growth Inhibition Rate)
Conidiospores of a gray mold pathogen (Botrytis cinerea) were added to and dispersed in a yeast extract sucrose medium, and a component (I) and a component (II) dissolved in dimethyl sulfoxide at predetermined concentrations were further added and mixed thereto, and the resulting solution was dispensed onto a 96-well microplate and cultivated in the dark at 20° C. for 3 to 5 days. After the cultivation, the turbidity at a wavelength of 405 nm was measured by a microplate reader and compared with that in the untreated case to determine the growth inhibition rate (%) for the gray mold pathogen. The test was duplicately carried out. The results are shown in Tables 3 to 7 together with expected values calculated as follows.
Expected values were calculated by using Colby's equation: E=M+N−MN/100. Here, E denotes an expected value (%) of a growth inhibition rate, M denotes a growth inhibition rate (%) in using a component (I) alone, and N denotes a growth inhibition rate (%) in using a component (II) alone.
If the actually measured growth inhibition rate (%) of a composition of a component (I) and a component (II) is higher than the expected value, E, the composition of a component (I) and a component (II) is said to have exerted synergistic effect.

COc1ccccc1C(O)Cn1cc(/C(C)=N/OC(C)C)c(=O)n(C[C@H](C)NC(=O)C(C)C)c1=O (some centres unmarked) [Compound 4]
control value ([1]; Table 11, Examination 1, Compound 4 0.4 ppm alone or mixed with component (II)): 78 | control value ([1]; Table 11, Examination 2, Compound 4 0.4 ppm alone or mixed with component (II)): 64 | control value ([1]; Table 11, Examination 3, Compound 4 0.4 ppm alone or mixed with component (II)): 63 | control value ([1]; Table 11, Examination 4, Compound 4 0.4 ppm alone or mixed with component (II)): 59 | control value ([1]; Table 11, Examination 5, Compound 4 0.4 ppm alone or mixed with component (II)): 59 | control value ([1]; Table 11, Examination 6, Compound 4 0.4 ppm alone or mixed with component (II)): 67 | growth inhibition rate ([2]; Table 6, Examination 1, Compound 4 (0.25 or 0.063 ppm) alone or mixed with component (II)): 56% | growth inhibition rate ([2]; Table 6, Examination 2, Compound 4 (0.25 or 0.063 ppm) alone or mixed with component (II)): 31% | growth inhibition rate ([2]; Table 6, Examination 3, Compound 4 (0.25 or 0.063 ppm) alone or mixed with component (II)): 6% | growth inhibition rate ([2]; Table 6, Examination 4, Compound 4 (0.25 or 0.063 ppm) alone or mixed with component (II)): 4% | growth inhibition rate ([2]; Table 6, Examination 5, Compound 4 (0.25 or 0.063 ppm) alone or mixed with component (II)): 4% | growth inhibition rate ([2]; Table 6, Examination 6, Compound 4 (0.25 or 0.063 ppm) alone or mixed with component (II)): 3%

COc1ccc(F)cc1C(O)Cn1cc(/C(C)=N/OC(C)C)c(=O)n(C[C@@H](NC(=O)C(C)C)C(C)C)c1=O (some centres unmarked) [Compound 1]
control value ([1]; Table 8, Examination 1, Compound 1 0.4 ppm alone or mixed with component (II)): 78 | control value ([1]; Table 8, Examination 2, Compound 1 0.4 ppm alone or mixed with component (II)): 64 | control value ([1]; Table 8, Examination 3, Compound 1 0.4 ppm alone or mixed with component (II)): 67 | control value ([1]; Table 8, Examination 4, Compound 1 0.4 ppm alone or mixed with component (II)): 83 | control value ([1]; Table 8, Examination 5, Compound 1 0.4 ppm alone or mixed with component (II)): 75 | control value ([1]; Table 8, Examination 6, Compound 1 0.4 ppm alone or mixed with component (II)): 67 | growth inhibition rate ([2]; Table 3, Examination 2, Compound 1 (0.25 or 0.063 ppm) alone or mixed with component (II)): 52% | growth inhibition rate ([2]; Table 3, Examination 4, Compound 1 (0.25 or 0.063 ppm) alone or mixed with component (II)): 31%
